# Source: US20130287870A1, “NOVEL USES FOR TRADITIONAL CHINESE MEDICINE” (priority 2012, published 2013)
# Experiments:
# cortical neurons [1] = test: Membrane hyperpolarization associated with neuroprotection; type: cell-based, mouse
# cortical neurons [2] = test: Oxygen glucose deprivation (OGD) model, neuronal death assessed by Hoechst staining; type: cell-based, mouse; conditions: glibenclamide 10 μM applied 30 min before MLC901 1 μg/mL
# Method: Time-pregnant (E14) C57B16/J mice were anesthetized with isopentane followed by cervical dislocation as previously described (Heurteaux et al., 2010). Fetuses were removed and placed in cold HBSS^+ solution. Cerebral cortices were dissected in cold HBSS^+ solution and the meninges were removed. Cortical samples were cut in small pieces and were gently triturated with a fire-polished glass Pasteur pipette in 8 ml HBSS^+ solution. The mix was filtered (40 μm filter) and centrifuged at 800 rpm for 8 min. The supernatant was removed and the pellet was dissolved in 2 ml culture medium. Cells were plated on poly-D-lysine (Sigma-Aldrich Chimie, St Quentin Fallavier, France)-coated 12 well (24 mm diameter) plates with glass coverslips (12 mm diameter) (CML, Nemours, France) at a density of 1×10^6 cells/well. Cultures were maintained at 37° C. in a humidified 95% air/5% CO2 atmosphere incubator in Neurobasal supplemented with B27, Glutamax, 100 units/ml penicillin, and 100 µg/ml streptomycin and used for experiments up to 12 days. Glial growth was suppressed by addition of 5-Fluoro-2-deoxyuridine (2 μM) and Uridine (2 μM) during the second day of culture.
# OGD experiments were performed on primary mouse cortical neurons seeded at a density of 1,000,000 cells/35-mm dish after 4 days of culture (Goldberg and Choi, 1993). […]
# [3] = target: KATP channel (Kir 6.2 and SUR 1) (Homo sapiens, UniProt Q09428+Q14654); test: Two-electrode voltage clamp of KATP channels expressed in Xenopus oocytes, preactivated by sodium azide; type: cell-based; conditions: sodium azide 3 mM; test substance 10 μM
# [4] = target: T1, KATP channels in INS-R9 insulinoma cells (Rattus norvegicus, UniProt P70673+Q09429); test: Whole cell patch clamp recording of endogenous KATP currents in INS-R9 cells; type: cell-based; conditions: 10 μM pinacidil applied with MLC901 1 μg/mL
# T1 construct: Insulinoma cells naturally have KATP channels; endogenous in cells; host or cells: rat INS-R9 insulinoma cells
# T1 sequence (P70673 whole entry): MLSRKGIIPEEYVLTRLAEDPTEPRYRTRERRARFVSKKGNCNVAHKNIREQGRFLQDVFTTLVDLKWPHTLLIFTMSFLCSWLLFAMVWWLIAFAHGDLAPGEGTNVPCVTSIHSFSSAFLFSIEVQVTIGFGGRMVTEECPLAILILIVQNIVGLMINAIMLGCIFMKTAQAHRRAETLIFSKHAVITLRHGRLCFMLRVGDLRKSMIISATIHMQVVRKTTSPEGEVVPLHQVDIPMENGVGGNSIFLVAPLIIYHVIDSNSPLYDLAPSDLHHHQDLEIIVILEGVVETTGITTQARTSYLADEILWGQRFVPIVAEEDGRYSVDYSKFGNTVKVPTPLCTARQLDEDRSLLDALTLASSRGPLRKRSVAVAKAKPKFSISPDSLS
# T1 sequence (Q09429 whole entry): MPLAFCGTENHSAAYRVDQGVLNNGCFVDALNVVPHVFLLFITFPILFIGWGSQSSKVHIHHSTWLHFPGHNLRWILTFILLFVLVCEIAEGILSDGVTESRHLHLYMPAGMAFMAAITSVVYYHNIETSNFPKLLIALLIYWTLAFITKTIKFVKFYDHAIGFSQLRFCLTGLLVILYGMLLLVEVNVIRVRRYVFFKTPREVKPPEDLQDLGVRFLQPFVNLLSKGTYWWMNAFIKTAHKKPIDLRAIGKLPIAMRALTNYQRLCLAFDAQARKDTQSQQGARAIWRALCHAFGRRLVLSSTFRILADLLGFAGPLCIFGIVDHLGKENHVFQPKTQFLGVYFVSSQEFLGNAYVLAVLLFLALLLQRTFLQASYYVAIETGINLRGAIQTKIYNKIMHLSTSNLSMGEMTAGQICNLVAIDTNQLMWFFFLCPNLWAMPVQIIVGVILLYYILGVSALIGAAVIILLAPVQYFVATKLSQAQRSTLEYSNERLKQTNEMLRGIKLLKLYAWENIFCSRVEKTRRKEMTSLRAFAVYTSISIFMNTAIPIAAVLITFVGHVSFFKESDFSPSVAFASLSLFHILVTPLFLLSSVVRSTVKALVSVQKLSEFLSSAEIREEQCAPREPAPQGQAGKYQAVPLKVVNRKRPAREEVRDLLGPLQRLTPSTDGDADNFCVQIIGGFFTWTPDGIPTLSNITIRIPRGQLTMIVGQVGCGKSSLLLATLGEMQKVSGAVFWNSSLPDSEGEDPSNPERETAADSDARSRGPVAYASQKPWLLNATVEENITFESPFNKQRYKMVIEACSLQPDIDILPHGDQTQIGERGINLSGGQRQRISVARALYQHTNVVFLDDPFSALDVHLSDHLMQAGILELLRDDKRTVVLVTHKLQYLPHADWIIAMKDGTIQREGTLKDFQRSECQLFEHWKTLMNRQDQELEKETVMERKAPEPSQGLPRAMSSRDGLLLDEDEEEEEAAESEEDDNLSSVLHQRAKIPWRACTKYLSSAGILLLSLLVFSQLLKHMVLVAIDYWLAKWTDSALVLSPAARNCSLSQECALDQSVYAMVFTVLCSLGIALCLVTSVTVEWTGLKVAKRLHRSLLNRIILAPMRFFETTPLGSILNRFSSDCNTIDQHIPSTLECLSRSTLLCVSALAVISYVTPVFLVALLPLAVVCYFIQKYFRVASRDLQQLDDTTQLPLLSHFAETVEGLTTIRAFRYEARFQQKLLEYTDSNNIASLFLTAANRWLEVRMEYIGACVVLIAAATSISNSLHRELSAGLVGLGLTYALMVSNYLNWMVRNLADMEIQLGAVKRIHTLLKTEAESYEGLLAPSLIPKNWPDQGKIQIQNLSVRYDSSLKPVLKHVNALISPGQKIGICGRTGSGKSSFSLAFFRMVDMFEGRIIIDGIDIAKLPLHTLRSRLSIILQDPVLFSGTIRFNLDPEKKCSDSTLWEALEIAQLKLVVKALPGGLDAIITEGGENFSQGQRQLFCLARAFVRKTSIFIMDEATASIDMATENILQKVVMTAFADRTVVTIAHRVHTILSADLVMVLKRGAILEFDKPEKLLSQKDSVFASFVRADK
# KATP channel (Kir 6.2 and SUR 1), sequence (Q14654 whole entry): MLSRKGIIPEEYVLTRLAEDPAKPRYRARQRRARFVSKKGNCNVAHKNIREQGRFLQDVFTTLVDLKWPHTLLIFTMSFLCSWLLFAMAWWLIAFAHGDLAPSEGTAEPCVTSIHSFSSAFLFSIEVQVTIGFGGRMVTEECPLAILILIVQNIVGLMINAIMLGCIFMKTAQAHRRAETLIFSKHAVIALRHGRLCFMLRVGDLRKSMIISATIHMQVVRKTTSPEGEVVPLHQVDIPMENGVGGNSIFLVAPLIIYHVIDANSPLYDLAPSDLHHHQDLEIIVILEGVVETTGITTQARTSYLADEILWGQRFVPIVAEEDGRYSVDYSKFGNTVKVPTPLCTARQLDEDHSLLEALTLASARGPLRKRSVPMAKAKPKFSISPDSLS
# KATP channel (Kir 6.2 and SUR 1), sequence (Q09428 whole entry): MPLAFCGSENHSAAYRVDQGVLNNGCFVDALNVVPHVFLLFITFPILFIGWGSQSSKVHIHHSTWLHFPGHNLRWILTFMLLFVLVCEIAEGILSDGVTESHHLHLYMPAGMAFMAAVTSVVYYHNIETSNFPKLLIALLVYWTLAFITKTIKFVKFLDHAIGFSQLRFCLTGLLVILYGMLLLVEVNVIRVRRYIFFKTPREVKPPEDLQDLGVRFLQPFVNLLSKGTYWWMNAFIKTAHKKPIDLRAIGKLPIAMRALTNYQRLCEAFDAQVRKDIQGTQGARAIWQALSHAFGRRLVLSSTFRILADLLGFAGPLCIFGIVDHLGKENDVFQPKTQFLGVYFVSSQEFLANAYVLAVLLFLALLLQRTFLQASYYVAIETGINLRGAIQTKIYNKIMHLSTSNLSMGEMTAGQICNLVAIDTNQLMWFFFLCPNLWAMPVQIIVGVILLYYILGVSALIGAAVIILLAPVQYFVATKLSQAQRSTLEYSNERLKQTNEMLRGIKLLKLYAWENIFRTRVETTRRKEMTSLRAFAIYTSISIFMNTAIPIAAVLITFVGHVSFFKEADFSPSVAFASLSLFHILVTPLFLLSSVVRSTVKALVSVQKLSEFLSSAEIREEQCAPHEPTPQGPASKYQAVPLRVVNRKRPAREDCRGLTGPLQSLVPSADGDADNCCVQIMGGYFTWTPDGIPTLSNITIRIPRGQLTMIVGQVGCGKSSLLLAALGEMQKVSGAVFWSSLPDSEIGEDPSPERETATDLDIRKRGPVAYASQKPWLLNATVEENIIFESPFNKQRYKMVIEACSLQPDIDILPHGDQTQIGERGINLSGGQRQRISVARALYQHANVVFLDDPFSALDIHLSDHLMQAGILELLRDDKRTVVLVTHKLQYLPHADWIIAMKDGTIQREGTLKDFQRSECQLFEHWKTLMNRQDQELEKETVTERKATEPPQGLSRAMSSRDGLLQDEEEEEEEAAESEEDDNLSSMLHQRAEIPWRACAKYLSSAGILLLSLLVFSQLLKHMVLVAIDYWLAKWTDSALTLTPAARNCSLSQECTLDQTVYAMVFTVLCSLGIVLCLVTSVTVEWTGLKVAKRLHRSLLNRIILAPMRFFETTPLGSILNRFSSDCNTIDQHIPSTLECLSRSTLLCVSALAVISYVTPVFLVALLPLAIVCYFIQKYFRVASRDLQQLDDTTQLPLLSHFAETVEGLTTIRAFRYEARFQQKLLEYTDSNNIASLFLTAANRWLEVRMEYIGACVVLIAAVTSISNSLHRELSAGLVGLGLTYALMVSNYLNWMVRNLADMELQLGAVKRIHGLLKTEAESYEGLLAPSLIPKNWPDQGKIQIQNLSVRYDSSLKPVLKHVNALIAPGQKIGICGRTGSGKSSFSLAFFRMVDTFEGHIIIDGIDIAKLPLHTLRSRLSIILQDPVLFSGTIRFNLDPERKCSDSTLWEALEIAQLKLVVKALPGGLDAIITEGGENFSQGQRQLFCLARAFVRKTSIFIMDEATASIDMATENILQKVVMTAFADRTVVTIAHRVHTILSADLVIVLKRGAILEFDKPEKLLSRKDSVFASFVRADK
amplitude of the azide-induced KATP channel current [3],"KATP current in INS-R9 cells, combination with MLC901 [4]",SMILES,effect on MLC901-induced hyperpolarization (cortical neurons [1]),effect on the protection induced by MLC901 against OGD damage (cortical neurons [2])
–,–,COc1ccc(Cl)cc1C(=O)NCCc1ccc(S(=O)(=O)NC(=O)NC2CCCCC2)cc1 [glibenclamide],antagonized,inhibited the protection induced by MLC901
amplified,additive effect,"CC(N=C(NC#N)Nc1ccncc1)C(C)(C)C (stereo not shown) [pinacidil, N-cyano-N′-pyridin-4-yl-N″-(1,2,2-trimethylpropyl)guanidine]",–,–
